The values below come from US6563014B2, “Self-contained system for sustained viral replication” (Albert Einstein College of Medicine of Yeshiva University, priority 1999, dated 2003).

This test relates to HIV-1. Kind of test: Effect of protease inhibitor treatment on plasma HIV RNA levels in transgenic mice. The class given is in vivo. The text has this:
(iv) Quantitation of plasma HIV RNA levels: HIV RNA in the mouse plasma was quantitated by using the Roche AMPLICOR HIV-1 MONITOR™ kits (Roche Diagnostic Systems, Branchburg, N.J.) which can measure virion associated HIV-1 RNA in plasma at concentrations as low as 400 RNA copies/ml as described (Pettoello-Mantovani, M., et al., J. Infect. Dis.1 77:337-346, 1998). After plasma was isolated from the peripheral blood of the JR-CSF TG mice, an internal HIV quantitation standard (QS), a synthetic RNA molecule with primer binding sites identical to the HIV target and an internal probe sequence specific to the QS RNA molecule, was added to 200 μl of each plasma sample. RNA was then extracted from the plasma samples with a Lysis Reagent containing guanidine thiocyanate, precipitated with isopropanol, resuspended in reaction buffer and a 142 base pair sequence in the HIV gag gene was amplified by reverse transcription and PCR using rtth pol and biotinylated primers SK431 and SK462. In order to prevent PCR product contamination, dUTP was incorporated during the PCR reaction and then all of the samples were treated with AmpErase prior to PCR to eliminate carryover of any dUTP-containing PCR product. The biotinylated HIV and QS amplicons were quantitated by detection in separate wells of a microwell plate coated with HIV-specific and QS-specific oligonucleotide probes, respectively, using avidin-horseradish peroxidase conjugate and a calorimetric reaction for horseradish peroxidase. The HIV and QS amplicons were measured in a dynamic range from 400 to 750,000 copies/ml by performing 5-fold serial dilutions of the amplicons in the HIV-specific and QS-specific wells of the microplate (rows A to F and G to H, respectively). The HIV RNA copy number was then calculated from the known input copy number of the QS RNA, the optical densities at 450 nm of the HIV-well and the QS-well that fell within a defined range, and the dilution factors associated with the selected wells.
First, the mean plasma viral levels in the hu-CD4/CCR5/JRCSF TG mice are higher that in the JR-CSF TG mice. […]

[1] abbreviates: hu-CD4/CCR5/JRCSF TG mice, FIG. 14.

Regarding `CC(C)c1nc(CN(C)C(=O)N[C@H](C(=O)N[C@@H](Cc2ccccc2)C[C@H](O)[C@H](Cc2ccccc2)NC(=O)OCc2cncs2)C(C)C)cs1` [protease inhibitor, ritonavir], under “JR-CSF TG mice”, the “plasma viremia after treatment with a protease inhibitor” value was “did not decrease and actually went up”. Under setting [1], the “plasma HIV RNA levels after the protease inhibitor was stopped” value is “went back up” and the “plasma HIV RNA levels after treatment with the protease inhibitor” value is given as “markedly decreased”.
